Measurements from the CheMixHub viscosity set.
Several values for one entry are separate records, joined by “and”; a condition that tells them apart may be missing. Equal values may be shown once. ± gives the uncertainty stated by the source.

Experiment: xn = mol fraction of the nth substance listed

CN(C)CCO + O
viscosity
Conditions	293.15 K	298.15 K	303.15 K	308.15 K	313.15 K	318.15 K	323.15 K
101 kPa, x1 = 0.03444	–	–	1.45 ± 0.06 mPa·s	–	1.14 ± 0.05 mPa·s	–	0.91 ± 0.04 mPa·s
101 kPa, x1 = 0.05	–	–	1.921 ± 0.018 mPa·s	1.657 ± 0.015 mPa·s	–	1.271 ± 0.013 mPa·s	–
101 kPa, x1 = 0.07971	–	–	2.95 ± 0.12 mPa·s and 2.92 ± 0.06 mPa·s	–	2.01 ± 0.04 mPa·s	–	1.56 ± 0.06 mPa·s and 1.51 ± 0.03 mPa·s
101 kPa, x1 = 0.08	4.245 ± 0.025 mPa·s	3.487 ± 0.023 mPa·s	2.898 ± 0.021 mPa·s	2.44 ± 0.02 mPa·s	–	1.791 ± 0.019 mPa·s	1.557 ± 0.018 mPa·s
101 kPa, x1 = 0.1003	–	–	3.662 ± 0.027 mPa·s	3.042 ± 0.023 mPa·s	2.555 ± 0.02 mPa·s	2.183 ± 0.018 mPa·s	–
101 kPa, x1 = 0.1187	–	–	4.64 ± 0.1 mPa·s	–	3.19 ± 0.07 mPa·s	–	2.31 ± 0.05 mPa·s
101 kPa, x1 = 0.1419	–	–	5.19 ± 0.21 mPa·s	–	–	–	2.51 ± 0.1 mPa·s
101 kPa, x1 = 0.1993	–	–	7.496 ± 0.047 mPa·s	6.012 ± 0.044 mPa·s	4.87 ± 0.035 mPa·s	4.018 ± 0.029 mPa·s	–
101 kPa, x1 = 0.2947	–	–	9.838 ± 0.062 mPa·s	7.806 ± 0.056 mPa·s	6.256 ± 0.045 mPa·s	5.104 ± 0.037 mPa·s	–
101 kPa, x1 = 0.3489	–	–	10.24 ± 0.066 mPa·s	8.126 ± 0.058 mPa·s	6.525 ± 0.046 mPa·s	5.309 ± 0.038 mPa·s	–
101 kPa, x1 = 0.4004	–	–	10.1 ± 0.066 mPa·s	8.019 ± 0.057 mPa·s	6.443 ± 0.046 mPa·s	5.268 ± 0.038 mPa·s	–
101 kPa, x1 = 0.453	–	–	9.546 ± 0.063 mPa·s	7.626 ± 0.054 mPa·s	6.189 ± 0.044 mPa·s	5.067 ± 0.036 mPa·s	–
101 kPa, x1 = 0.504	–	–	8.735 ± 0.058 mPa·s	7.048 ± 0.05 mPa·s	5.741 ± 0.041 mPa·s	4.741 ± 0.034 mPa·s	–
101 kPa, x1 = 0.6047	–	–	7.076 ± 0.048 mPa·s	5.815 ± 0.041 mPa·s	4.809 ± 0.034 mPa·s	4.041 ± 0.029 mPa·s	–
101 kPa, x1 = 0.7044	–	–	5.567 ± 0.038 mPa·s	4.675 ± 0.033 mPa·s	3.934 ± 0.028 mPa·s	3.341 ± 0.024 mPa·s	–
101 kPa, x1 = 0.8062	–	–	4.37 ± 0.03 mPa·s	3.722 ± 0.026 mPa·s	3.184 ± 0.023 mPa·s	2.756 ± 0.02 mPa·s	–
101 kPa, x1 = 0.9046	–	–	3.485 ± 0.025 mPa·s	3.015 ± 0.022 mPa·s	2.615 ± 0.019 mPa·s	2.293 ± 0.018 mPa·s	–
101.3 kPa, x1 = 0.1001	6.55 ± 0.06 mPa·s	–	4 ± 0.04 mPa·s	–	2.56 ± 0.03 mPa·s	–	–
101.3 kPa, x1 = 0.1999	10.56 ± 0.09 mPa·s	–	6.7 ± 0.06 mPa·s	–	4.2 ± 0.04 mPa·s	–	3.19 ± 0.03 mPa·s
101.3 kPa, x1 = 0.3	13.17 ± 0.11 mPa·s	–	8.53 ± 0.07 mPa·s	–	5.23 ± 0.05 mPa·s	–	3.69 ± 0.03 mPa·s
101.3 kPa, x1 = 0.4	14.4 ± 0.12 mPa·s	–	9.37 ± 0.08 mPa·s	–	5.7 ± 0.05 mPa·s	–	3.86 ± 0.04 mPa·s
101.3 kPa, x1 = 0.5	14.13 ± 0.12 mPa·s	–	9.3 ± 0.08 mPa·s	–	5.61 ± 0.05 mPa·s	–	3.65 ± 0.04 mPa·s
101.3 kPa, x1 = 0.6001	12.81 ± 0.11 mPa·s	–	8.61 ± 0.08 mPa·s	–	5.08 ± 0.05 mPa·s	–	3.16 ± 0.03 mPa·s
101.3 kPa, x1 = 0.6998	10.51 ± 0.09 mPa·s	–	7.1 ± 0.06 mPa·s	–	4.26 ± 0.04 mPa·s	–	2.64 ± 0.03 mPa·s
101.3 kPa, x1 = 0.8	7.76 ± 0.07 mPa·s	–	5.27 ± 0.05 mPa·s	–	–	–	2.12 ± 0.03 mPa·s
101.3 kPa, x1 = 0.9001	5.2 ± 0.05 mPa·s	–	3.53 ± 0.04 mPa·s	–	2.4 ± 0.03 mPa·s	–	1.84 ± 0.03 mPa·s
